Laboratory results from patent US20110319424A1, “NAPHTHYRIDIN-2(1H) -ONE COMPOUNDS USEFUL AS ANTIBACTERIALS” (priority 2008, published 2011).

Tested on: Mycobacterium tuberculosis H37Rv
Experiment: Mycobacterium tuberculosis H37Rv inhibition assay (MIC, resazurin fluorescence)
Format: cell-based
Conditions: ATCC 25618 / H37Rv, 144 h, H37Rv strain (ATCC25618), Middlebrook 7H9, six days at 37° C. then resazurin 48 hours

| Structure (SMILES) | MIC |
| --- | --- |
| O=c1ccc2ncc(F)cc2n1CCN1CCC(NCc2ccc(Br)cn2)CC1 [Example 1, 1-[2-(4-{[(5-Bromo-2-pyridinyl)methyl]amino}-1-piperidinyl)ethyl]-7-fluoro-1,5-naphthyridin-2(1H)-one] | ≤ 1 µg/mL |
| Cl.Cl.O=c1ccc2ncc(F)cc2n1CCN1CCC(NCc2ccc(Br)cn2)CC1 [Example 1b, 1-[2-(4-{[(5-Bromo-2-pyridinyl)methyl]amino}-1-piperidinyl)ethyl]-7-fluoro-1,5-napthyridin-2(1H)-one dihydrochloride] | ≤ 1 µg/mL |
| COc1cnc2ccc(=O)n(CCN3CCC(NCc4cnc(Br)s4)CC3)c2c1 [Example 2, 1-[2-(4-{[(2-Bromo-1,3-thiazol-5-yl)methyl]amino}-1-piperidinyl)ethyl]-7-(methyloxy)-1,5-naphthyridin-2(1H)-one] | ≤ 1 µg/mL |
| COc1cnc2ccc(=O)n(CCN3CCC(NCc4cnc(Br)s4)CC3)c2c1.Cl [Example 2b, 1-[2-(4-{[(2-Bromo-1,3-thiazol-5-yl)methyl]amino}-1-piperidinyl)ethyl]-7-(methyloxy)-1,5-naphthyridin-2(1H)-one hydrochloride] | ≤ 1 µg/mL |
| O=c1ccc2ncc(F)cc2n1CCN1CCC(NCc2ccc(Cl)c(Cl)c2)CC1 [Example 3, 1-[2-(4-{[(3,4-Dichlorophenyl)methyl]amino}-1-piperidinyl)ethyl]-7-fluoro-1,5-naphthyridin-2(1H)-one] | ≤ 1 µg/mL |
| Cl.Cl.O=c1ccc2ncc(F)cc2n1CCN1CCC(NCc2ccc(Cl)c(Cl)c2)CC1 [Example 3b, 1-[2-(4-{[(3,4-Dichlorophenyl)methyl]amino}-1-piperidinyl)ethyl]-7-fluoro-1,5-naphthyridin-2(1H)-one dihydrochloride] | ≤ 1 µg/mL |
| COc1cnc2ccc(=O)n(CCN3CCC(NCc4ccc(C(F)(F)F)nc4)CC3)c2c1 [Example 4, 7-(Methyloxy)-1-{2-[4-({[6-(trifluoromethyl)-3-pyridinyl]methyl}amino)-1-piperidinyl]ethyl}-1,5-naphthyridin-2(1H)-one] | ≤ 1 µg/mL |
| COc1cnc2ccc(=O)n(CCN3CCC(NCc4ccc(C(F)(F)F)nc4)CC3)c2c1.Cl [Example 4b, 7-(Methyloxy)-1-{2-[4-({[6-(trifluoromethyl)-3-pyridinyl]methyl}amino)-1-piperidinyl]ethyl}-1,5-naphthyridin-2(1H)-one hydrochloride] | ≤ 1 µg/mL |
| COc1cnc2ccc(=O)n(CCN3CCC(NCc4nc(C)c(C)s4)CC3)c2c1 [Example 6, 1-[2-(4-{[(4,5-Dimethyl-1,3-thiazol-2-yl)methyl]amino}-1-piperidinyl)ethyl]-7-(methyloxy)-1,5-naphthyridin-2(1H)-one] | ≤ 2.4 µg/mL |
| O=c1ccc2ncccc2n1CCN1CCC(NCc2ccc(Cl)c(Cl)c2)CC1 [Example 8, 1-[2-(4-{[(3,4-Dichlorophenyl)methyl]amino}-1-piperidinyl)ethyl]-1,5-naphthyridin-2(1H)-one] | ≤ 1 µg/mL |
| Cl.Cl.O=c1ccc2ncccc2n1CCN1CCC(NCc2ccc(Cl)c(Cl)c2)CC1 [Example 8b, 1-[2-(4-{[(3,4-Dichlorophenyl)methyl]amino}-1-piperidinyl)ethyl]-1,5-naphthyridin-2(1H)-one dihydrochloride] | ≤ 1 µg/mL |
| O=c1ccc2ncccc2n1CCN1CCC(NCc2ccc(Br)nc2)CC1 [Example 9, 1-[2-(4-{[(6-Bromo-3-pyridinyl)methyl]amino}-1-piperidinyl)ethyl]-1,5-naphthyridin-2(1H)-one] | ≤ 2.4 µg/mL |
| COc1cnc2ccc(=O)n(CCN3CCC(NCc4ccc(Cl)c(Cl)c4)CC3)c2c1 [Example 11, 1-[2-(4-{[(3,4-Dichlorophenyl)methyl]amino}-1-piperidinyl)ethyl]-7-(methyloxy)-1,5-naphthyridin-2(1H)-one] | ≤ 1 µg/mL |
| COc1cnc2ccc(=O)n(CCN3CCC(NCc4ccc(Cl)c(Cl)c4)CC3)c2c1.Cl [Example 11b, 1-[2-(4-{[(3,4-Dichlorophenyl)methyl]amino}-1-piperidinyl)ethyl]-7-(methyloxy)-1,5-naphthyridin-2(1H)-one hydrochloride] | ≤ 1 µg/mL |
| COc1cnc2ccc(=O)n(CCN3CCC(NCc4ccc(Cl)c(Cl)c4)CC3)c2c1.Cl.Cl [Example 11c, 1-[2-(4-{[(3,4-Dichlorophenyl)methyl]amino}-1-piperidinyl)ethyl]-7-(methyloxy)-1,5-naphthyridin-2(1H)-one dihvdrochloride] | ≤ 1 µg/mL |
| COc1cnc2ccc(=O)n(CCN3CCC(NCc4ccc(Cl)cc4)CC3)c2c1 [Example 12, 1-[2-(4-{[(4-Chlorophenyl)methyl]amino}-1-piperidinyl)ethyl]-7-(methyloxy)-1,5-naphthyridin-2(1H)-one] | ≤ 1 µg/mL |
| COc1cnc2ccc(=O)n(CCN3CCC(NCc4ccc(Cl)cc4)CC3)c2c1.Cl.Cl [Example 12b, 1-[2-(4-{[(4-Chlorophenyl)methyl]amino}-1-piperidinyl)ethyl]-7-(methyloxy)-1,5-naphthyridin-2(1H)-one dihydrochloride] | ≤ 1 µg/mL |
| COc1cnc2ccc(=O)n(CCN3CCC(NCc4ccc(Cl)cc4)CC3)c2c1.Cl [Example 12c, 1-[2-(4-{[(4-Chlorophenyl)methyl]amino}-1-piperidinyl)ethyl]-7-(methyloxy)-1,5-naphthyridin-2(1H)-one hydrochloride] | ≤ 1 µg/mL |

| Structure (SMILES) | MIC |
| --- | --- |
| O=c1ccc2ncc(F)cc2n1CCN1CCC(NCc2ccc(Br)o2)CC1 [Example 34, 1-[2-(4-{[(5-bromo-2-furanyl)methyl]amino}-1-piperidinyl)ethyl]-7-fluoro-1,5-naphthyridin-2(1H)-one] | ≤ 2.4 µg/mL |
| O=c1ccc2ncc(F)cc2n1CCN1CCC(NCc2cc(Cl)ccc2Cl)CC1 [Example 38, 1-[2-(4-{[(2,5-dichlorophenyl)methyl]amino}-1-piperidinyl)ethyl]-7-fluoro-1,5-naphthyridin-2(1H)-one] | ≤ 2.4 µg/mL |
| O=c1ccc2ncccc2n1CCN1CCC(NCc2ccc(Br)s2)CC1 [Example 48, 1-[2-(4-{[(5-bromo-2-thienyl)methyl]amino}-1-piperidinyl)ethyl]-1,5-naphthyridin-2(1H)-one] | ≤ 2.4 µg/mL |
| O=c1ccc2ncccc2n1CCN1CCC(NCc2cnc(Br)s2)CC1 [Example 49, 1-[2-(4-{[(2-bromo-1,3-thiazol-5-yl)methyl]amino}-1-piperidinyl)ethyl]-1,5-naphthyridin-2(1H)-one] | ≤ 2.4 µg/mL |
| COc1ccc(CNC2CCN(CCn3c(=O)ccc4ncccc43)CC2)cc1Cl [Example 51, 1-{2-[4-({[3-chloro-4-(methyloxy)phenyl]methyl}amino)-1-piperidinyl]ethyl}-1,5-naphthyridin-2(1H)-one] | ≤ 2.4 µg/mL |
| COc1cnc2ccc(=O)n(CCN3CCC(NCc4nc(Br)cs4)CC3)c2c1 [Example 64, 1-[2-(4-{[(4-bromo-1,3-thiazol-2-yl)methyl]amino}-1-piperidinyl)ethyl]-7-(methyloxy)-1,5-naphthyridin-2(1H)-one] | ≤ 2.4 µg/mL |
| COc1cnc2ccc(=O)n(CCN3CCC(NCc4ccc(F)c(C)n4)CC3)c2c1 [Example 68, 1-[2-(4-{[(5-fluoro-6-methyl-2-pyridinyl)methyl]amino}-1-piperidinyl)ethyl]-7-(methyloxy)-1,5-naphthyridin-2(1H)-one] | ≤ 2.4 µg/mL |
| O=c1ccc2ncccc2n1CCN1CCC(NCc2cc(Br)cs2)CC1 [Example 81, 1-[2-(4-{[(4-bromo-2-thienyl)methyl]amino}-1-piperidinyl)ethyl]-1,5-naphthyridin-2(1H)-one] | ≤ 2.4 µg/mL |
| O=c1ccc2ncc(F)cc2n1CCN1CCC(NCc2cccc(Cl)c2)CC1 [Example 103, 1-[2-(4-{[(3-chlorophenyl)methyl]amino}-1-piperidinyl)ethyl]-7-fluoro-1,5-naphthyridin-2(1H)-one] | ≤ 2.4 µg/mL |
| COc1cnc2ccc(=O)n(CCN3CCC(NCc4cncc(Cl)n4)CC3)c2c1 [Example 111, 1-[2-(4-{[(6-chloro-2-pyrazinyl)methyl]amino}-1-piperidinyl)ethyl]-7-(methyloxy)-1,5-naphthyridin-2(1H)-one] | ≤ 2.4 µg/mL |
| COc1cnc2ccc(=O)n(CCN3CCC(NCc4ccnc(C(F)(F)F)n4)CC3)c2c1 [Example 113, 7-(methyloxy)-1-{2-[4-({[2-(trifluoromethyl)-4-pyrimidinyl]methyl}amino)-1-piperidinyl]ethyl}-1,5-naphthyridin-2(1H)-one] | ≤ 2.4 µg/mL |
| COc1cnc2ccc(=O)n(CCN3CCC(NCc4cc(C)cc(C)n4)CC3)c2c1 [Example 114, 1-[2-(4-{[(4,6-dimethyl-2-pyridinyl)methyl]amino}-1-piperidinyl)ethyl]-7-(methyloxy)-1,5-naphthyridin-2(1H)-one] | ≤ 2.4 µg/mL |
| COc1cnc2ccc(=O)n(CCN3CCC(NCc4ccc(Cl)cn4)CC3)c2c1 [Example 116] | ≤ 2.4 µg/mL |
| CC(C)(C)c1ccc(CNC2CCN(CCn3c(=O)ccc4ncc(F)cc43)CC2)cc1 [Example 121, 1-{2-[4-({[4-(1,1-dimethylethyl)phenyl]methyl}amino)-1-piperidinyl]ethyl}-7-fluoro-1,5-naphthyridin-2(1H)-one] | ≤ 2.4 µg/mL |
| Cc1cc(CNC2CCN(CCn3c(=O)ccc4ncc(F)cc43)CC2)cnc1C [Example 125, 1-[2-(4-{[(5,6-dimethyl-3-pyridinyl)methyl]amino}-1-piperidinyl)ethyl]-7-fluoro-1,5-naphthyridin-2(1H)-one] | ≤ 2.4 µg/mL |
| Cc1ncc(CN[C@H]2CCN(CCn3c(=O)ccc4ncc(F)cc43)C[C@H]2O)cc1Br [Example 130, 1-[2-((3R,4S)-4-{[(5-bromo-6-methyl-3-pyridinyl)methyl]amino}-3-hydroxy-1-piperidinyl)ethyl]-7-fluoro-1,5-naphthyridin-2(1H)-one] | ≤ 2.4 µg/mL |
| CC1(NCc2ccc(C(F)(F)F)nc2)CCN(CCn2c(=O)ccc3ncc(F)cc32)CC1 [Example 131, 7-fluoro-1-{2-[4-methyl-4-({[6-(trifluoromethyl)-3-pyridinyl]methyl}amino)-1-piperidinyl]ethyl}-1,5-naphthyridin-2(1H)-one] | ≤ 2.4 µg/mL |
| COc1cnc2ccc(=O)n(CCN3CCC(C)(NCc4ccc(Cl)c(Cl)c4)CC3)c2c1 [Example 132] | ≤ 2.4 µg/mL |
